Results on 11 compounds are retold here after patent US20260285853A1, “COMPOUNDS AND METHODS FOR MODULATING SPLICING” (REMIX THERAPEUTICS INC., priority 2023, published 2026).

The AC50 is the concentration at which the activity in the assay is half-maximal. One may read the IC50 as the concentration needed to halve the response being measured. The GI50 is the concentration giving 50% growth inhibition.

Each structure is given as a SMILES string. Bounds are passed on as bounds.

Holding throughout (type): cell-based
Assay [1] has as its system HTT mRNA. The assay is described as follows: Splicing RT-qPCR assay (THP), Table 2A. As to conditions: Table 2A (THP); for AC50: AJ mRNA increase, read-out: HTT AJ (increase in alternative junction mRNA, AC50); for IC50: CJ mRNA decrease, read-out: HTT CJ (decrease in canonical junction mRNA, IC50). (In general: Quantitative PCR measures a nucleic acid by following its amplification.)

In assay [2] the test system is MYB mRNA. The assay can be described thus: Splicing RT-qPCR assay (THP), Table 2A. The note with it: Table 2A (THP); for AC50: AJ mRNA increase, read-out: MYB AJ (increase in alternative junction mRNA, AC50); for IC50: CJ mRNA decrease, read-out: MYB CJ (decrease in canonical junction mRNA, IC50).
Assay [3] has as its system HTT mRNA. The assay is described as follows: Gene panel canonical junction qPCR assay, decrease in CJ mRNA, Table 3. The note with it: decrease in canonical junction (CJ) mRNA, gene panel qPCR, Table 3. How it is done: (§1) Compounds described herein were used to modulate RNA transcript abundance in cells. The expression of a target mRNA was measured by detecting the formation of an exon-exon junction in the canonical transcript (CJ). A compound mediated exon-inclusion event was detected by observing an increase in formation of a new junction with an alternative exon (AJ). Real-time qPCR assays were used to detect these splicing switches and interrogate the potency of various compounds towards different target genes. A high-throughput real time quantitative PCR (RT-qPCR) assay was developed to measure these two isoforms of the mRNA (CJ and AJ) for exemplary genes, such as HTT, SMN2, and MYB, together with a control housekeeping gene, GAPDH or GUSB or PPIA, used for normalization. Briefly, the A673 or K562 cell line was treated with various compounds described herein (e.g., compounds of Formula (I)). After treatment, the levels of the HTT, MYB, or SMN2 mRNA targets were determined from each sample of cell lysate by cDNA synthesis followed by qPCR.
(§2) The A673 cell line was cultured in DMEM with 10% FBS. Cells were diluted with full growth media and plated in a 96-well plate (15,000 cells in 100 ul media per well). The plate was incubated at 37° C. with 5% CO2 for 24 hours to allow cells to adhere. An 11-point 3-fold serial dilution of the compounds was made in DMSO then diluted in media in an intermediate plate. Compounds were transferred from the intermediate plate to the cell plate with the top dose at a final concentration of 10 uM in the well. Final DMSO concentration was kept at or below 0.25%. The cell plate was returned to the incubator at 37° C. with 5% CO2 for an additional 24 hours.
(§3) The K562 cell line was cultured in IMDM with 10% FBS. For K562, cells were diluted with full growth media and plated in either a 96-well plate (50,000 cells in 50 uL media per well) or a 384-well plate (8,000-40,000 cells in 45 uL media per well). An 11-point 3-fold serial dilution of the compounds were made in DMSO then diluted in media in an intermediate plate. Compound was transferred from the intermediate plate to the cell plate with the top dose at a final concentration of 10 uM in the well. Final DMSO concentration was kept at or below 0.25%. Final volume was 100 uL for 96-well plate and 50 uL for 384-well plate. The cell plate was then placed in an incubator at 37° C. with 5% CO2 for 24 hours.
(§4) The data analysis was performed by first determining the ΔCt vs the housekeeper gene. This ΔCt was then normalized against the DMSO control (ΔΔCt) and converted to RQ (relative quantification) using the 2^(−ΔΔCt) equation. The RQ were then converted to a percentage response by arbitrarily setting an assay window of 3.5 and 4.0 ΔCt for HTT-CJ and MYB-CJ respectively and an assay window of 9 and 3 ΔCt for HTT-AJ and MYB-AJ in 96 well format (50,000 K562 cells/well and 15,000 A673 cells per well) and an assay window of 3 and 4 ΔCt for HTT-CJ and MYB-CJ respectively and an assay window of 5 and 3 ΔCt for HTT-AJ and MYB-AJ respectively in 384 well format (8,000 K562 cells/well example). […] The percentage response was then fitted to the 4 parametric logistic equation to evaluate the concentration dependence of compound treatment. The increase in AJ mRNA is reported as AC50 (compound concentration having 50% response in AJ increase) while the decrease in CJ mRNA levels is reported as IC50 (compound concentration having 50% response in CJ decrease).
(§5) Additional studies were carried out for a larger panel of genes using the protocol provided above. The junction between flanking upstream and downstream exons was used to design canonical junction qPCR assays. At least one of the forward primer, reverse primer or the CY5-labeled 5′ nuclease probe (with 3′ quencher such as ZEN/Iowa Black FQ) was designed to overlap with the exon junction to capture the CJ mRNA transcript. […]

The test system of assay [4] is MYB mRNA. The description is as above. As to conditions: decrease in canonical junction (CJ) mRNA, gene panel qPCR, Table 3. On the procedure:
as §1, §2, §3, §4, §5

For assay [5], the system named is SH-SY5Y (human neuroblastoma) cells. The assay can be described thus: Cell viability, Cell Titer Glo 2.0 assay. As to conditions: read-out: Viability SHSY5Y.3 GI50. How it is done:
Compounds described herein were screened for toxicity in K562 (human chronic myelogenous leukemia) and SH-SY5Y (human neuroblastoma) cells using a Cell Titer Glo 2.0 assay.
• Promega CellTiter-Glo® 2.0 Cell Viability Assay (cat #G9241) • Corning 384-well TC-treated microplates (cat #3570)
Cells were plated at 500 cells/well (K562 cells) in 45 μL of IMDM supplemented with 10% FBS in a 384-well opaque plate. Wells containing only medium were used as a blank control. Test compounds (e.g., compounds of Formula (I) or (II) were first serially diluted in DMSO then diluted 1:100 with IMDM+10% FBS. The final concentration of DMSO was 0.1% in each well. The cells were incubated for 72 hours at 37° C. and 5% CO2 before assaying with Cell Titer Glo 2.0 reagent.
On the technique in general: In ATP-based viability assays light output follows the ATP content of the culture.

`CCNC1CCN(c2ccc(C(=O)Nc3cc(CO)c4nc(C)cn4c3)c3nn(C)cc23)CC1` [Compound 329, 4-[4-(ethylamino)-1-piperidyl]-N-[8-(hydroxymethyl)-2-methyl-imidazo[1,2-a]pyridin-6-yl]-2-methyl-indazole-7-carboxamide]: the AC50 in assay [1] is 1 to 10 µM; in assay [2], 100 to 1000 nM. Further, the IC50 is more than 10 µM in assay [1], 100 to 1000 nM in assay [2], more than 10 µM in assay [3] and 100 to 1000 nM in assay [4]. The GI50 in assay [5] lay in the range of 1000 to 10000 nM.
For the compound `COc1c(NC(=O)c2c(F)cc(N3CCS(=N)(=O)CC3)c3cn(C)nc23)cn2cc(C)nc2c1F` [Compound 330, 6-fluoro-N-(8-fluoro-7-meth-oxy-2-methyl-imidazo[1,2-a]-pyridin-6-yl)-4-(1-imino-1-oxo-1,4-thiazinan-4-yl)-2-methyl-indazole-7-carboxamide], the AC50 was more than 10 µM in assay [1] and 100 to 1000 nM in assay [2]. Further, the half-inhibitory concentration (IC50) in assay [1] was more than 10 µM; in assay [2], 1000 to 10000 nM; in assay [3], more than 10 µM; in assay [4], 1000 to 10000 nM. The GI50 in assay [5] is more than 10000 nM.
`CCNC1CCN(c2cc(F)c(C(=O)Nc3cn4cc(C)nc4cc3OC)c3nn(C)cc23)CC1` [Compound 331, 4-[4-(ethylamino)-1-piperidyl]-6-fluoro-N-(7-methoxy-2-methyl-imidazo [1,2-a]pyridin-6-yl)-2-methyl-indazole-7-carboxamide]: the concentration at half-maximal activity (AC50) in assay [1] is 0.1 to 1 µM; in assay [2], less than 100 nM. The 50% inhibitory concentration (IC50) in assay [1] is 0.1 to 1 µM; in assay [2], less than 100 nM; in assay [3], 0.1 to 1 µM; in assay [4], less than 100 nM. Also, the GI50 in assay [5] is 1000 to 10000 nM.
As for `CCNC1CCN(c2cc(O)c(C(=O)Nc3cn4cc(C)nc(C)c4n3)c3nn(C)cc23)CC1` [Compound 332, N-(6,8-dimethylimidazo[1,2-a]pyrazin-2-yl)-4-(4-(ethylamino)piperidin-1-yl)-6-hydroxy-2-methyl-2H-indazole-7-carboxamide 2,2,2-trifluoroacetate], the AC50 was more than 10 µM in assay [1] and 100 to 1000 nM in assay [2]. Besides, the concentration for half-maximal inhibition (IC50) was more than 10 µM in assay [1], 100 to 1000 nM in assay [2], more than 10 µM in assay [3] and 100 to 1000 nM in assay [4]. Also, in assay [5], the GI50 fell in the range of 1000 to 10000 nM.
In the case of `CCNC1CCN(c2cc(OC)c(C(=O)Nc3cn4cc(C)nc(C)c4n3)c3nn(C)cc23)CC1` [Compound 333, N-(6,8-dimethylimidazo[1,2-a]pyrazin-2-yl)-4-[4-(ethylamino)-1-piperidyl]-6-methoxy-2-methyl-indazole-7-carboxamide], the AC50 in assay [1] is more than 10 µM; in assay [2], more than 10000 nM. In addition, the concentration for half-maximal inhibition (IC50) in assay [1] is more than 10 µM; in assay [2] it was more than 10000 nM; in assay [3] it was more than 10 µM; in assay [4] it was more than 10000 nM. The GI50 in assay [5] was more than 10000 nM.
In the case of `Cc1cn2cc(NC(=O)c3c(F)cc(N4CCC(NC5CC5)CC4)c4cn(C)nc34)nc2c(C)n1` [Compound 334, 4-(4-(cyclopropylamino)-piperidin-1-yl)-N-(6,8-dimethyl-imidazo[1,2-a]pyrazin-2-y1)-6-fluoro-2-methyl-2H-indazole-7-carboxamide bis(2,2,2-trifluoroacetate)], the AC50 in assay [1] was 1 to 10 µM; in assay [2], less than 100 nM. The half-maximal inhibitory concentration (IC50) in assay [1] is more than 10 µM; in assay [2], 100 to 1000 nM; in assay [3] it was more than 10 µM; in assay [4] it was 100 to 1000 nM. Besides, in assay [5], the concentration for 50% growth inhibition (GI50) fell in the range of 100 to 1000 nM.
Consider `CCNC1CCN(c2cc(Cl)c(C(=O)Nc3cn4cc(C)nc4c(F)c3OC)c3nn(C)cc23)CC1` [Compound 335, 6-chloro-4-[4-(ethylamino)-1-piperidyl]-N-(8-fluoro-7-methoxy-2-methyl-imidazo[1,2-a]pyridin-6-yl)-2-methyl-indazole-7-carboxamide], for which the concentration at half-maximal activity (AC50) is less than 0.1 µM in assay [1] and less than 100 nM in assay [2]. In addition, the half-inhibitory concentration (IC50) is less than 0.1 µM in assay [1], less than 100 nM in assay [2], less than 0.1 µM in assay [3] and less than 100 nM in assay [4]. Moreover, the GI50 in assay [5] is less than 100 nM.
As to `CCNC1CCN(c2cc(F)c(C(=O)Nc3cn4cc(CC5CC5)nc4c(F)c3OC)c3nn(C)cc23)CC1` [Compound 336, N-[2-(cyclopropyl-methyl)-8-fluoro-7-methoxyimidazo-[1,2-a]pyridin-6-yl]-4-[4-(ethylamino)-1-piperidyl]-6-fluoro-2-methyl-indazole-7-carboxamide], the concentration at half-maximal activity (AC50) was more than 10 µM in assay [1] and more than 10000 nM in assay [2]. The half-inhibitory concentration (IC50) in assay [1] was more than 10 µM; in assay [2], more than 10000 nM; in assay [3] it was more than 10 µM; in assay [4] it was more than 10000 nM. Further, the concentration for 50% growth inhibition (GI50) in assay [5] was more than 10000 nM.
Consider `CCNC1CCN(c2ccc(C(=O)Nc3cn4cc(CO)nc(C)c4n3)c3nn(C)cc23)CC1` [Compound 337, 4-(4-(ethylamino)piperidin-1-yl)-N-(6-(hydroxymethyl)-8-methylimidazo[1,2-a]pyrazin-2-yl)-2-methyl-2H-indazole-7-carboxamide 2,2,2-trifluoroacetate], for which the figures for the concentration at half-maximal activity (AC50) in assay [1] and in assay [2] were more than 10 µM and 1000 to 10000 nM, respectively. The half-maximal inhibitory concentration (IC50) in assay [1] was more than 10 µM; in assay [2], 1000 to 10000 nM; in assay [3], more than 10 µM; in assay [4], 1000 to 10000 nM. Moreover, in assay [5], the GI50 was more than 10000 nM.
Take `CCNC1CCN(c2ccc(C(=O)Nc3cc(Cc4ccccc4)c4nc(C)cn4c3)c3nn(C)cc23)CC1` [Compound 338, N-(8-benzyl-2-methylimidazo-[1,2-a]pyridin-6-yl)-4-[4-(ethylamino)-1-piperidyl]-2-methyl-indazole-7-carboxamide]: the AC50 in assay [1] was 1 to 10 µM; in assay [2] it was less than 100 nM. Also, the concentration for half-maximal inhibition (IC50) is 1 to 10 µM in assay [1], less than 100 nM in assay [2], 1 to 10 µM in assay [3] and less than 100 nM in assay [4]. For the same compound, the GI50 in assay [5] was 100 to 1000 nM.
With `CCNC1CCN(c2ccc(C(=O)Nc3cc(CC(=O)O)c4nc(C)cn4c3)c3nn(C)cc23)CC1` [Compound 339, 2-[6-[[4-[4-(ethylamino)-1-piperidyl]-2-methyl-indazole-7-carbonyl]amino]-2-methyl-imidazo[1,2-a]-pyridin-8-yl]acetic acid], the AC50 lay in the range of 0.1 to 1 µM in assay [1] and 100 to 1000 nM in assay [2]. Moreover, the concentration for half-maximal inhibition (IC50) lay in the range of 0.1 to 1 µM in assay [1], 100 to 1000 nM in assay [2], 0.1 to 1 µM in assay [3] and 100 to 1000 nM in assay [4]. The GI50 in assay [5] is 100 to 1000 nM.
